{"source": "ChEMBL document CHEMBL5329202", "about": "“New aryl-/heteroarylpiperazine derivatives of 1,7-dimethyl-8,9-diphenyl-4-azatricyclo[5.2.1.02,6]dec-8-ene-3,5,10-trione: Synthesis and preliminary studies of biological activities” (Bioorg Med Chem, 2023)", "key": {"PC-3 [1]": {"tested_on": "PC-3", "assay": "Antiproliferative activity against human PC-3 cells assessed as reduction in cell viability at IC50 measured after 72 hrs by trypan blue dye based assay relative to control", "format": "functional"}, "SW480 [2]": {"tested_on": "SW480", "assay": "Induction of apoptosis in human SW480 cells assessed as necrotic cells at IC50 incubated for 72 hrs by Annexin V-FITC/PI staining based flow cytometric analysis (reference value: 0.1 %)", "format": "functional"}, "Histamine H1 receptor": {"target": "Histamine H1 receptor (Rattus norvegicus, UniProt P31390)", "sequence (P31390 whole entry)": "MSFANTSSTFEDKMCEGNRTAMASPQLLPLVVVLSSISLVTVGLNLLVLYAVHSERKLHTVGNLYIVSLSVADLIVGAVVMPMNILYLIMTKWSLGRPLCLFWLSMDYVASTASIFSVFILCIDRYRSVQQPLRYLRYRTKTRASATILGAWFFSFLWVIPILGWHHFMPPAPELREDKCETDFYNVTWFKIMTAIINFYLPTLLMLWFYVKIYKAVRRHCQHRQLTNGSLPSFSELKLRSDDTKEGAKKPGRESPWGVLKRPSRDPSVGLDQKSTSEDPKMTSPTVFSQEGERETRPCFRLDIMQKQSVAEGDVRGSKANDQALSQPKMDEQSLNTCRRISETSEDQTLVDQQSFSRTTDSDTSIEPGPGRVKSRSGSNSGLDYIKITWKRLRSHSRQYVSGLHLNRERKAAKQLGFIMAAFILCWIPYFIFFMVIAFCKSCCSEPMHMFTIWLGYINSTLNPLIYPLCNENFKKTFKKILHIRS", "assay": "Displacement of [3H]pyrilamine from Sprague-Dawley rat H1 receptor assessed as inhibition constant measured after 30 mins by competitive binding assay"}, "SW480 [3]": {"tested_on": "SW480", "assay": "Induction of apoptosis in human SW480 cells assessed as viable cells at IC50 incubated for 72 hrs by Annexin V-FITC/PI staining based flow cytometric analysis (reference value: 97.7 %)", "format": "functional"}, "D(2) dopamine receptor": {"target": "D(2) dopamine receptor (Rattus norvegicus, UniProt P61169)", "sequence (P61169 whole entry)": "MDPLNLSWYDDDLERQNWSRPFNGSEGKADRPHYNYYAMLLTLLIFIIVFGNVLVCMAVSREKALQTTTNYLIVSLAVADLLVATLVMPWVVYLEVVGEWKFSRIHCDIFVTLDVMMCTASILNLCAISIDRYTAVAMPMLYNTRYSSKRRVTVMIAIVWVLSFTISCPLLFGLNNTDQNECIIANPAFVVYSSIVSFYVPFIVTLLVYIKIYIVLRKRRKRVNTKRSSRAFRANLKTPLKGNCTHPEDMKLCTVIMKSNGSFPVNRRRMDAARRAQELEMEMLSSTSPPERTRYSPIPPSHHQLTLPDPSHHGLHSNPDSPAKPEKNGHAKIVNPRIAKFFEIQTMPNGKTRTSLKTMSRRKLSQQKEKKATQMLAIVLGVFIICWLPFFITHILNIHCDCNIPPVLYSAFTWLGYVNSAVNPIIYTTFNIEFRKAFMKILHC", "assay": "Antagonist activity at Sprague-Dawley rat striatum membrane D2 receptor assessed as inhibition of dopamine stimulated [35S]GTPgammaS binding measured after 90 mins by scintillation counter analysis", "format": "functional, cell membranes"}, "SW-620 [4]": {"tested_on": "SW-620", "assay": "Induction of apoptosis in human SW620 cells assessed as early apoptotic cells at IC50 incubated for 72 hrs by Annexin V-FITC/PI staining based flow cytometric analysis (reference value: 5.2 %)", "format": "functional"}, "SW-620 [5]": {"tested_on": "SW-620", "assay": "Induction of apoptosis in human SW620 cells assessed as necrotic cells at IC50 incubated for 72 hrs by Annexin V-FITC/PI staining based flow cytometric analysis (reference value: 0.7 %)", "format": "functional"}, "K562 [6]": {"tested_on": "K562", "assay": "Antiproliferative activity against human K562 cells assessed as reduction in cell number at IC50 measured after 72 hrs by trypan blue dye based assay relative to control", "format": "functional", "parameters": "scale not given: the % may be the effect or the level left"}, "[7]": {"target": "5-hydroxytryptamine receptor 2A (Rattus norvegicus, UniProt P14842)", "sequence (P14842 whole entry)": "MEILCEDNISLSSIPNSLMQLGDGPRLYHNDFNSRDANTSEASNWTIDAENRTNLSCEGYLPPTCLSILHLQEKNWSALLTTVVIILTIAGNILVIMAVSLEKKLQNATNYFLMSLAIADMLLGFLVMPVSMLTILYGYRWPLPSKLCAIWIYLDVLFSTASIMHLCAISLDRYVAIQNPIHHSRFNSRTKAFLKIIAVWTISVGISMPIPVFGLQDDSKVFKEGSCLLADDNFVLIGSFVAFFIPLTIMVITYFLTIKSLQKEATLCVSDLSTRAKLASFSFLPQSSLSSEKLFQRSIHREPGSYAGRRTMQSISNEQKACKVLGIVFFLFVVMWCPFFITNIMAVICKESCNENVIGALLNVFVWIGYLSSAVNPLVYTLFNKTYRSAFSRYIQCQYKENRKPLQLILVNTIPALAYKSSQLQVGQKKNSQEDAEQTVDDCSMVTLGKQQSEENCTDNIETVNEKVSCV", "assay": "Displacement of [3H]ketanserin from Sprague-Dawley rat 5-HT2A receptor assessed as inhibition constant measured after 60 mins by competitive binding assay"}, "PC-3 [8]": {"tested_on": "PC-3", "assay": "Induction of apoptosis in human PC-3 cells assessed as late apoptotic cells at IC50 incubated for 72 hrs by Annexin V-FITC/PI staining based flow cytometric analysis (reference value: 1.7 %)", "format": "functional"}, "[9]": {"assay": "Selectivity index, ratio of IC50 for cytotoxicity against human HMEC-1 cells to IC50 for cytotoxicity against human HCT-116 cells", "format": "toxicity, cell-based", "settings": "HMEC-1 cells and HCT-116 cells, read-out: Ratio IC50"}, "SW-620 [10]": {"tested_on": "SW-620", "assay": "Induction of apoptosis in human SW620 cells assessed as viable cells at IC50 incubated for 72 hrs by Annexin V-FITC/PI staining based flow cytometric analysis (reference value: 92.9 %)", "format": "functional"}, "PC-3 [11]": {"tested_on": "PC-3", "assay": "Induction of apoptosis in human PC-3 cells assessed as necrotic cells at IC50 incubated for 72 hrs by Annexin V-FITC/PI staining based flow cytometric analysis (reference value: 3.6 %)", "format": "functional"}, "SW480 [12]": {"tested_on": "SW480", "assay": "Antiproliferative activity against human SW480 cells assessed as reduction in cell number at IC50 measured after 72 hrs by trypan blue dye based assay relative to control", "format": "functional", "parameters": "scale not given: the % may be the effect or the level left"}, "PC-3 [13]": {"tested_on": "PC-3", "assay": "Induction of apoptosis in human PC-3 cells assessed as increase in caspase-3/7 activity at IC50 incubated for 24 hrs by Glo assay relative to control", "format": "functional"}, "[14]": {"assay": "Selectivity index, ratio of IC50 for cytotoxicity against human HMEC-1 cells to IC50 for cytotoxicity against human SW620 cells"}, "SW-620 [15]": {"tested_on": "SW-620", "assay": "Antiproliferative activity against human SW620 cells assessed as reduction in cell viability at IC50 measured after 72 hrs by trypan blue dye based assay relative to control", "format": "functional"}, "SW480 [16]": {"tested_on": "SW480", "assay": "Antiproliferative activity against human SW480 cells assessed as decrease in IL-6 level at IC50 measured after 72 hrs by ELISA assay relative to control", "format": "functional", "parameters": "scale not given: the % may be the effect or the level left"}, "SW480 [17]": {"tested_on": "SW480", "assay": "Induction of apoptosis in human SW480 cells assessed as late apoptotic cells at IC50 incubated for 72 hrs by Annexin V-FITC/PI staining based flow cytometric analysis (reference value: 0.8 %)", "format": "functional"}, "SW-620 [18]": {"tested_on": "SW-620", "assay": "Induction of apoptosis in human SW620 cells assessed as late apoptotic cells at IC50 incubated for 72 hrs by Annexin V-FITC/PI staining based flow cytometric analysis (reference value: 1.2 %)", "format": "functional"}, "SW-620 [19]": {"tested_on": "SW-620", "assay": "Antiproliferative activity against human SW620 cells assessed as reduction in cell number at IC50 measured after 72 hrs by trypan blue dye based assay relative to control", "format": "functional", "parameters": "scale not given: the % may be the effect or the level left"}, "PC-3 [20]": {"tested_on": "PC-3", "assay": "Induction of apoptosis in human PC-3 cells assessed as viable cells at IC50 incubated for 72 hrs by Annexin V-FITC/PI staining based flow cytometric analysis (reference value: 94.4 %)", "format": "functional"}, "HCT-116 [21]": {"tested_on": "HCT-116", "assay": "Induction of apoptosis in human HCT-116 cells assessed as increase in caspase-3/7 activity at IC50 incubated for 24 hrs by Glo assay relative to control", "format": "functional"}, "SW480 [22]": {"tested_on": "SW480", "assay": "Antiproliferative activity against human SW480 cells assessed as reduction in cell viability at IC50 measured after 72 hrs by trypan blue dye based assay relative to control", "format": "functional"}, "PC-3 [23]": {"tested_on": "PC-3", "assay": "Cytotoxicity against human PC-3 cells assessed as cell growth inhibition measured after 72 hrs by MTT assay", "format": "functional, cell-based", "settings": "PC-3, 72 h"}, "[24]": {"assay": "Selectivity index, ratio of IC50 for cytotoxicity against human HMEC-1 cells to IC50 for cytotoxicity against human A549 cells", "format": "toxicity, cell-based", "settings": "HMEC-1 cells and A549 cells, read-out: Ratio IC50"}, "HCT-116 [25]": {"tested_on": "HCT-116", "assay": "Antiproliferative activity against human HCT-116 cells assessed as decrease in IL-6 level at IC50 measured after 72 hrs by ELISA assay relative to control", "format": "functional", "parameters": "scale not given: the % may be the effect or the level left"}, "HMEC-1": {"tested_on": "HMEC-1", "assay": "Antiproliferative activity against human HMEC-1 cells assessed as reduction in cell viability at IC50 measured after 72 hrs by trypan blue dye based assay relative to control", "format": "toxicity", "settings": "hmec-1, 72 h"}, "K562 [26]": {"tested_on": "K562", "assay": "Induction of apoptosis in human K562 cells assessed as increase in caspase-3/7 activity at IC50 incubated for 24 hrs by Glo assay relative to control", "format": "functional"}, "SW-620 [27]": {"tested_on": "SW-620", "assay": "Antiproliferative activity against human SW620 cells assessed as decrease in IL-6 level at IC50 measured after 72 hrs by ELISA assay relative to control", "format": "functional", "parameters": "scale not given: the % may be the effect or the level left"}, "SW480 [28]": {"tested_on": "SW480", "assay": "Induction of apoptosis in human SW480 cells assessed as early apoptotic cells at IC50 incubated for 72 hrs by Annexin V-FITC/PI staining based flow cytometric analysis (reference value: […])", "format": "functional"}, "PC-3 [29]": {"tested_on": "PC-3", "assay": "Induction of apoptosis in human PC-3 cells assessed as early apoptotic cells at IC50 incubated for 72 hrs by Annexin V-FITC/PI staining based flow cytometric analysis (reference value: 0.3 %)", "format": "functional"}, "PC-3 [30]": {"tested_on": "PC-3", "assay": "Antiproliferative activity against human PC-3 cells assessed as reduction in cell number at IC50 measured after 72 hrs by trypan blue dye based assay relative to control", "format": "functional", "parameters": "scale not given: the % may be the effect or the level left"}, "HaCaT": {"tested_on": "HaCaT", "assay": "Induction of apoptosis in human HaCaT cells at IC50 incubated for 72 hrs by Annexin V-FITC/PI staining based flow cytometric analysis", "format": "functional, cell-based"}}, "note": "Active and inactive are the calls of the source. The calls are words filed in the database; no cut-off is given here.", "data": [{"smiles": "CC12C(=O)C(C)(C(c3ccccc3)=C1c1ccccc1)C1C(=O)N(CCCCN3CCN(c4ccccc4Cl)CC3)C(=O)C12", "note": "(centres undefined)", "values": [{"measurement": "Activity", "setting": "PC-3 [1]", "value": 26, "unit": "%"}, {"measurement": "Activity", "setting": "SW480 [2]", "value": 0.1, "unit": "%"}, {"measurement": "Ki", "setting": "Histamine H1 receptor", "value": 0.03, "unit": "µM"}, {"measurement": "Activity", "setting": "SW480 [3]", "value": 89, "unit": "%"}, {"measurement": "IC50", "setting": "D(2) dopamine receptor", "value": 8.4, "unit": "µM"}, {"measurement": "Activity", "setting": "SW-620 [4]", "value": 6.1, "unit": "%"}, {"measurement": "Activity", "setting": "SW-620 [5]", "value": 1.8, "unit": "%"}, {"measurement": "Activity", "setting": "K562 [6]", "value": 61, "unit": "%"}, {"measurement": "Ki", "setting": "[7]", "value": 0.1, "unit": "µM"}, {"measurement": "Activity", "setting": "PC-3 [8]", "value": 32.6, "unit": "%"}, {"measurement": "selectivity ratio", "setting": "[9]", "value": 5.77}, {"measurement": "Activity", "setting": "SW-620 [10]", "value": 89.9, "unit": "%"}, {"measurement": "Activity", "setting": "PC-3 [11]", "value": 3.1, "unit": "%"}, {"measurement": "Activity", "setting": "SW480 [12]", "value": 38, "unit": "%"}, {"measurement": "Activity", "setting": "PC-3 [13]", "value": 216, "unit": "%"}, {"measurement": "Ratio IC50", "setting": "[14]", "value": 3.33}, {"measurement": "Activity", "setting": "SW-620 [15]", "value": 23, "unit": "%"}, {"measurement": "Activity", "setting": "SW480 [16]", "value": 48, "unit": "%"}, {"measurement": "Activity", "setting": "SW480 [17]", "value": 1, "unit": "%"}, {"measurement": "Activity", "setting": "SW-620 [18]", "value": 2.2, "unit": "%"}, {"measurement": "Activity", "setting": "SW-620 [19]", "value": 27, "unit": "%"}, {"measurement": "Activity", "setting": "PC-3 [20]", "value": 60.1, "unit": "%"}, {"measurement": "Activity", "setting": "HCT-116 [21]", "value": 137, "unit": "%"}, {"measurement": "Activity", "setting": "SW480 [22]", "value": 21, "unit": "%"}, {"measurement": "IC50", "setting": "PC-3 [23]", "value": 7.85, "unit": "µM"}, {"measurement": "selectivity ratio", "setting": "[24]", "value": 0.82}, {"measurement": "Activity", "setting": "HCT-116 [25]", "value": 53, "unit": "%"}, {"measurement": "Activity", "setting": "HMEC-1", "value": "Non-Toxic"}, {"measurement": "Activity", "setting": "K562 [26]", "value": 22, "unit": "%"}, {"measurement": "Activity", "setting": "SW-620 [27]", "value": 24, "unit": "%"}, {"measurement": "Activity", "setting": "SW480 [28]", "value": 10, "unit": "%"}, {"measurement": "Activity", "setting": "PC-3 [29]", "value": 4.2, "unit": "%"}, {"measurement": "Activity", "setting": "PC-3 [30]", "value": 43, "unit": "%"}, {"measurement": "Activity", "setting": "HaCaT", "value": "inactive"}]}]}
